Reference: paper PMC5218480 (PLoS ONE, 2017)

Tested on: MV-4-11 cells
Experiment: Gene expression microarray analysis (Affymetrix PrimeView) and GSEA
Format: cell-based, human
Set-up: RFU PODN (11730768_x_at) / Fold change /veh PODN (11730768_x_at) / RFU LINC00158 (11744669_a_at) / Fold change /veh LINC00158 (11744669_a_at) / RFU DUSP10 (11751237_a_at) / Fold change /veh DUSP10 (11751237_a_at) / RFU ID3 (11757404_x_at) / Fold change /veh ID3 (11757404_x_at) / RFU PLEKHG5 (11737974_s_at) / Fold change /veh PLEKHG5 (11737974_s_at) / RFU LRRC4B (11730491_at) / Fold change /veh LRRC4B (11730491_at) / RFU GIMAP4 (11747438_a_at) / Fold change /veh GIMAP4 (11747438_a_at) / RFU KRT8 (11758183_x_at) / Fold change /veh KRT8 (11758183_x_at) / RFU CNN1 (11734310_a_at) / Fold change /veh CNN1 (11734310_a_at) / RFU VPS37D (11726825_at) / Fold change /veh VPS37D (11726825_at) / RFU C10orf10 (11716522_x_at) / Fold change /veh C10orf10 (11716522_x_at) / RFU KIR2DL2 /// KIR2DL4 /// KIR2DL5A /// KIR2DL5B /// KIR2DS1 /// KIR2DS2 /// KIR2DS3 /// KIR2DS4 /// KIR3DL3 /// KIR3DL3 /// KIR3DS1 (11738374_at) / Fold change /veh KIR2DL2 /// KIR2DL4 /// KIR2DL5A /// KIR2DL5B /// KIR2DS1 /// KIR2DS2 /// KIR2DS3 /// KIR2DS4 /// KIR3DL3 /// KIR3DL3 /// KIR3DS1 (11738374_at) / RFU C1QL1 (11718748_at) / Fold change /veh C1QL1 (11718748_at) / RFU TMPRSS4 (11747572_a_at) / Fold change /veh TMPRSS4 (11747572_a_at) / RFU HAMP (11756126_x_at) / Fold change /veh HAMP (11756126_x_at) / RFU RNFT2 (11725882_a_at) / Fold change /veh RNFT2 (11725882_a_at) / RFU NR4A2 (11747474_a_at) / Fold change /veh NR4A2 (11747474_a_at) / RFU ABCC12 (11746883_a_at) / Fold change /veh ABCC12 (11746883_a_at) / RFU TMEM136 (11760407_x_at) / Fold change /veh TMEM136 (11760407_x_at) / RFU CLDN22 /// WWC2 (11732394_at) / Fold change /veh CLDN22 /// WWC2 (11732394_at) / RFU HLA-DPB1 (11760878_x_at) / Fold change /veh HLA-DPB1 (11760878_x_at) / RFU SPINT1 (11716480_a_at) / Fold change /veh SPINT1 (11716480_a_at) / RFU GAP43 (11754022_s_at) / Fold change /veh GAP43 (11754022_s_at) / RFU A4GNT (11735810_at) / Fold change /veh A4GNT (11735810_at) / RFU PRB3 (11715151_x_at) / Fold change /veh PRB3 (11715151_x_at) / RFU TUBB4B (11761932_at) / Fold change /veh TUBB4B (11761932_at) / RFU CAPN14 (11732068_a_at) / Fold change /veh CAPN14 (11732068_a_at) / RFU TMCC2 (11721928_a_at) / Fold change /veh TMCC2 (11721928_a_at) / RFU IRGQ (11745062_a_at) / Fold change /veh IRGQ (11745062_a_at) / RFU FAM174B (11720279_a_at) / Fold change /veh FAM174B (11720279_a_at) / RFU TMPRSS4 (11748680_a_at) / Fold change /veh TMPRSS4 (11748680_a_at) / RFU FAM212B (11763350_a_at) / Fold change /veh FAM212B (11763350_a_at) / RFU PLEKHG5 (11743358_a_at) / Fold change /veh PLEKHG5 (11743358_a_at) / RFU ZSCAN30 (11745921_a_at) / Fold change /veh ZSCAN30 (11745921_a_at) / RFU CMKLR1 (11741424_a_at) / Fold change /veh CMKLR1 (11741424_a_at) / RFU LOC101060620 /// MAPK8IP1 (11723275_at) / Fold change /veh LOC101060620 /// MAPK8IP1 (11723275_at) / RFU SPTSSB (11747773_x_at) / Fold change /veh SPTSSB (11747773_x_at) / RFU PRSS12 (11739890_at) / Fold change /veh PRSS12 (11739890_at) / RFU BIN1 (11741810_x_at) / Fold change /veh BIN1 (11741810_x_at) / RFU WNT11 (11732464_a_at) / Fold change /veh WNT11 (11732464_a_at) / RFU C10orf10 (11716521_a_at) / Fold change /veh C10orf10 (11716521_a_at) / RFU C5orf56 (11738089_at) / Fold change /veh C5orf56 (11738089_at) / RFU CYB561 (11721691_x_at) / Fold change /veh CYB561 (11721691_x_at) / RFU ANKRD19P (11752326_a_at) / Fold change /veh ANKRD19P (11752326_a_at) / RFU OR2T12 /// OR2T33 /// OR2T8 (11738714_s_at) / Fold change /veh OR2T12 /// OR2T33 /// OR2T8 (11738714_s_at) / RFU VCAN (11748164_a_at) / Fold change /veh VCAN (11748164_a_at) / RFU JSRP1 (11732532_at) / Fold change /veh JSRP1 (11732532_at) / RFU KRTAP10-11 (11738290_x_at) / Fold change /veh KRTAP10-11 (11738290_x_at) / RFU MYO3A (11730013_a_at) / Fold change /veh MYO3A (11730013_a_at) / RFU EBF3 (11725865_a_at) / Fold change /veh EBF3 (11725865_a_at) / RFU CAMK2N1 (11719241_x_at) / Fold change /veh CAMK2N1 (11719241_x_at) / RFU C5orf56 (11738088_a_at) / Fold change /veh C5orf56 (11738088_a_at) / RFU OLFML3 (11715873_a_at) / Fold change /veh OLFML3 (11715873_a_at) / RFU LOC100653217 /// NTM (11731650_a_at) / Fold change /veh LOC100653217 /// NTM (11731650_a_at) / RFU MAPK11 (11762145_a_at) / Fold change /veh MAPK11 (11762145_a_at) / RFU FIZ1 (11724087_x_at) / Fold change /veh FIZ1 (11724087_x_at) / RFU OASL (11726364_x_at) / Fold change /veh OASL (11726364_x_at) / RFU SOX15 (11748057_x_at) / Fold change /veh SOX15 (11748057_x_at) / RFU CD79A (11719716_a_at) / Fold change /veh CD79A (11719716_a_at) / RFU HIST1H1D (11736915_at) / Fold change /veh HIST1H1D (11736915_at) / RFU CASKIN2 (11723855_a_at) / Fold change /veh CASKIN2 (11723855_a_at) / RFU LOC730098 (11760151_x_at) / Fold change /veh LOC730098 (11760151_x_at) / RFU OR4N2 (11742367_at) / Fold change /veh OR4N2 (11742367_at) / RFU PRRT2 (11749266_a_at) / Fold change /veh PRRT2 (11749266_a_at) / RFU SNX32 (11753110_a_at) / Fold change /veh SNX32 (11753110_a_at) / RFU CDHR5 (11726645_a_at) / Fold change /veh CDHR5 (11726645_a_at) / RFU RCAN1 (11760418_a_at) / Fold change /veh RCAN1 (11760418_a_at) / RFU FAM167A (11723789_a_at) / Fold change /veh FAM167A (11723789_a_at) / RFU FAM26E (11764081_at) / Fold change /veh FAM26E (11764081_at) / RFU ISYNA1 (11749810_s_at) / Fold change /veh ISYNA1 (11749810_s_at) / RFU ACY1 (11761880_at) / Fold change /veh ACY1 (11761880_at) / RFU 11764098_at / Fold change /veh 11764098_at / RFU SAMD14 (11745864_x_at) / Fold change /veh SAMD14 (11745864_x_at) / RFU NPB (11741838_a_at) / Fold change /veh NPB (11741838_a_at) / RFU TMPRSS6 (11731388_a_at) / Fold change /veh TMPRSS6 (11731388_a_at) / RFU KRTAP10-2 (11738614_at) / Fold change /veh KRTAP10-2 (11738614_at) / RFU ARHGAP8 /// PRR5-ARHGAP8 (11727945_x_at) / Fold change /veh ARHGAP8 /// PRR5-ARHGAP8 (11727945_x_at) / RFU KRTAP5-7 /// NADSYN1 (11734609_at) / Fold change /veh KRTAP5-7 /// NADSYN1 (11734609_at) / RFU RASL12 (11751679_a_at) / Fold change /veh RASL12 (11751679_a_at) / RFU CDKN2B (11736163_a_at) / Fold change /veh CDKN2B (11736163_a_at) / RFU PRF1 (11729649_at) / Fold change /veh PRF1 (11729649_at) / RFU, ZNF638 /// ZNF638-IT1 / Fold change vs veh, ZNF638 /// ZNF638-IT1 / RFU, PANK3 / Fold change vs veh, PANK3 / RFU, SH3YL1 / Fold change vs veh, SH3YL1 / RFU, ZEB2 / Fold change vs veh, ZEB2 / RFU, NRIP1 / Fold change vs veh, NRIP1 / RFU, PTTG1IP / Fold change vs veh, PTTG1IP / RFU, CAPN2 / Fold change vs veh, CAPN2 / RFU, MED14 / Fold change vs veh, MED14 / RFU, SNORA58 / Fold change vs veh, SNORA58 / RFU, C1orf63 / Fold change vs veh, C1orf63 / RFU, LRRFIP1 / Fold change vs veh, LRRFIP1 / RFU, NDUFAF7 / Fold change vs veh, NDUFAF7 / RFU, SLC12A2 / Fold change vs veh, SLC12A2 / RFU, IBTK / Fold change vs veh, IBTK / RFU, ESF1 / Fold change vs veh, ESF1 / Fold change vs veh, TMEM50B / RFU, TAOK1 / Fold change vs veh, TAOK1 / RFU, ACBD3 / Fold change vs veh, ACBD3 / RFU, TMA16 / Fold change vs veh, TMA16 / RFU, RWDD3 / Fold change vs veh, RWDD3 / RFU, BCAT1 / Fold change vs veh, BCAT1 / RFU, EDEM3 / Fold change vs veh, EDEM3 / RFU, TMEM33 / Fold change vs veh, TMEM33 / RFU, WDR75 / Fold change vs veh, WDR75 / RFU, AHCTF1 / Fold change vs veh, AHCTF1 / RFU, TFRC / Fold change vs veh, TFRC / RFU, ZDHHC17 / Fold change vs veh, ZDHHC17 / RFU, NOM1 / Fold change vs veh, NOM1 / RFU, ARL8B / Fold change vs veh, ARL8B / RFU, ZBTB11 / Fold change vs veh, ZBTB11 / RFU, TAMM41 / Fold change vs veh, TAMM41 / RFU, KIAA1704 /// LOC100996395 / Fold change vs veh, KIAA1704 /// LOC100996395 / RFU, ING1 / Fold change vs veh, ING1 / RFU, TRMT61B / Fold change vs veh, TRMT61B / RFU, FUBP3 / Fold change vs veh, FUBP3 / RFU, TP53 / Fold change vs veh, TP53 / RFU, TNKS2 / Fold change vs veh, TNKS2 / RFU, ZFP14 / Fold change vs veh, ZFP14 / RFU, ACTR2 / Fold change vs veh, ACTR2 / RFU, PPP3R1 / Fold change vs veh, PPP3R1 / RFU, PIK3R1 / Fold change vs veh, PIK3R1 / RFU, HNRNPA1 / Fold change vs veh, HNRNPA1 / RFU, RNF170 / Fold change vs veh, RNF170 / RFU, ZNF28 / Fold change vs veh, ZNF28 / RFU, RNGTT / Fold change vs veh, RNGTT / RFU, OGT / Fold change vs veh, OGT / RFU, BRD1 / Fold change vs veh, BRD1 / RFU, MARS / Fold change vs veh, MARS / RFU, ZNF655 / Fold change vs veh, ZNF655 / RFU, FAHD1 / Fold change vs veh, FAHD1 / RFU, BDP1 / Fold change vs veh, BDP1 / RFU, LRRCC1 / Fold change vs veh, LRRCC1 / RFU, ARID1A / Fold change vs veh, ARID1A / RFU, ZNF146 / Fold change vs veh, ZNF146 / RFU, ZNF330 / Fold change vs veh, ZNF330 / RFU, GPN3 / Fold change vs veh, GPN3 / RFU, C9orf123 / Fold change vs veh, C9orf123 / RFU, N4BP2L2 / Fold change vs veh, N4BP2L2 / RFU, ARFIP1 / Fold change vs veh, ARFIP1 / RFU, FAM179B / Fold change vs veh, FAM179B / RFU, BCL10 / Fold change vs veh, BCL10 / RFU, UHRF1BP1L / Fold change vs veh, UHRF1BP1L / RFU, BET1 / Fold change vs veh, BET1 / RFU, CNOT2 / Fold change vs veh, CNOT2 / RFU, ZNF268 / Fold change vs veh, ZNF268 / Fold change vs veh, ZNF507 / RFU, DGCR2 / Fold change vs veh, DGCR2 / RFU, WDSUB1 / Fold change vs veh, WDSUB1 / Fold change vs veh, HSP90B1 /// MIR3652 / RFU, ADSS / Fold change vs veh, ADSS / RFU, GK / Fold change vs veh, GK / RFU, ZNF148 / Fold change vs veh, ZNF148 / RFU, TAF9 / Fold change vs veh, TAF9 / RFU, SLC1A5 / Fold change vs veh, SLC1A5 / RFU, SLMO2 / Fold change vs veh, SLMO2 / RFU, ABCC4 / Fold change vs veh, ABCC4 / RFU, LOC101060439 /// RAP1B / Fold change vs veh, LOC101060439 /// RAP1B / RFU, RFX7 / Fold change vs veh, RFX7 / RFU, GTPBP10 / Fold change vs veh, GTPBP10 / RFU, CNEP1R1 / Fold change vs veh, CNEP1R1 / RFU, BIVM-ERCC5 /// ERCC5 / Fold change vs veh, BIVM-ERCC5 /// ERCC5 / RFU, ILF3 / Fold change vs veh, ILF3 / RFU 11762660_at / Fold change /veh 11762660_at / RFU VCAN (11757783_s_at) / Fold change /veh VCAN (11757783_s_at) / RFU DDX43 (11728927_at) / Fold change /veh DDX43 (11728927_at) / RFU KRT8 (11758188_x_at) / Fold change /veh KRT8 (11758188_x_at) / RFU NKD1 (11759106_at) / Fold change /veh NKD1 (11759106_at) / RFU SRD5A1 (11742802_a_at) / Fold change /veh SRD5A1 (11742802_a_at) / RFU TPSAB1 /// TPSB2 (11721975_s_at) / Fold change /veh TPSAB1 /// TPSB2 (11721975_s_at) / RFU GSTM3 (11746129_a_at) / Fold change /veh GSTM3 (11746129_a_at) / RFU IL23R (11737362_x_at) / Fold change /veh IL23R (11737362_x_at) / RFU TMEM51 (11727254_a_at) / Fold change /veh TMEM51 (11727254_a_at) / RFU PIWIL2 (11732686_x_at) / Fold change /veh PIWIL2 (11732686_x_at) / RFU ORM1 (11744905_x_at) / Fold change /veh ORM1 (11744905_x_at) / RFU CCDC152 (11743942_at) / Fold change /veh CCDC152 (11743942_at) / RFU ECM1 (11717891_a_at) / Fold change /veh ECM1 (11717891_a_at) / RFU IL23R (11748794_a_at) / Fold change /veh IL23R (11748794_a_at) / RFU TNFAIP8L3 (11732012_x_at) / Fold change /veh TNFAIP8L3 (11732012_x_at) / RFU MBOAT4 (11741988_at) / Fold change /veh MBOAT4 (11741988_at) / RFU 11764193_at / Fold change /veh 11764193_at / RFU TMEM53 (11763286_at) / Fold change /veh TMEM53 (11763286_at) / RFU MAGEB2 (11727129_at) / Fold change /veh MAGEB2 (11727129_at) / RFU TMEM200A (11744735_a_at) / Fold change /veh TMEM200A (11744735_a_at) / RFU CCDC152 (11751479_a_at) / Fold change /veh CCDC152 (11751479_a_at) / RFU FAM211A (11726209_a_at) / Fold change /veh FAM211A (11726209_a_at) / RFU RGS16 (11746705_a_at) / Fold change /veh RGS16 (11746705_a_at) / RFU VCAN (11755009_s_at) / Fold change /veh VCAN (11755009_s_at) / RFU RHOB (11743442_s_at) / Fold change /veh RHOB (11743442_s_at) / RFU RGS16 (11720943_a_at) / Fold change /veh RGS16 (11720943_a_at) / RFU RGS16 (11720944_at) / Fold change /veh RGS16 (11720944_at) / RFU, VPS4B / Fold change vs veh, VPS4B / RFU, CREB1 / Fold change vs veh, CREB1 / RFU, DNAJC13 / Fold change vs veh, DNAJC13 / RFU, GNAQ / Fold change vs veh, GNAQ / RFU, CDK5R1 / Fold change vs veh, CDK5R1 / RFU, ZRANB3 / Fold change vs veh, ZRANB3 / RFU, CUL4A / Fold change vs veh, CUL4A / RFU, CCNY / Fold change vs veh, CCNY / RFU, UFL1 / Fold change vs veh, UFL1 / RFU, COG3 / Fold change vs veh, COG3 / RFU, DIAPH2 / Fold change vs veh, DIAPH2 / RFU, SKA2 / Fold change vs veh, SKA2 / RFU, AFF3 / Fold change vs veh, AFF3 / RFU, LMF1 / Fold change vs veh, LMF1 / RFU, IPO11 / Fold change vs veh, IPO11 / RFU, DFFB / Fold change vs veh, DFFB / RFU, FOXP1 / Fold change vs veh, FOXP1 / RFU, CARD8 / Fold change vs veh, CARD8 / RFU, STRN3 / Fold change vs veh, STRN3 / RFU, ADK / Fold change vs veh, ADK / RFU, RASSF2 / Fold change vs veh, RASSF2 / RFU, WIPF1 / Fold change vs veh, WIPF1 / RFU, LARP1B / Fold change vs veh, LARP1B / RFU, RASA1 / Fold change vs veh, RASA1 / RFU, RB1 / Fold change vs veh, RB1 / RFU, PPFIA1 / Fold change vs veh, PPFIA1 / RFU, MAT2A / Fold change vs veh, MAT2A / RFU, CCT5 / Fold change vs veh, CCT5 / RFU, WDR92 / Fold change vs veh, WDR92 / RFU, CUX1 / Fold change vs veh, CUX1 / RFU, TTC7A / Fold change vs veh, TTC7A / RFU, TMEM135 / Fold change vs veh, TMEM135 / RFU, DEPTOR / Fold change vs veh, DEPTOR / RFU, CPM / Fold change vs veh, CPM / RFU, DNAJB6 / Fold change vs veh, DNAJB6 / RFU, CACNA2D3 / Fold change vs veh, CACNA2D3 / RFU, DTX4 / Fold change vs veh, DTX4 / RFU, TFCP2 / Fold change vs veh, TFCP2 / RFU, GMCL1 /// GMCL1P1 / Fold change vs veh, GMCL1 /// GMCL1P1 / RFU, AEBP2 / Fold change vs veh, AEBP2 / RFU, SNHG1 /// SNORD22 /// SNORD25 /// SNORD26 /// SNORD27 /// SNORD28 /// SNORD29 /// SNORD31 / Fold change vs veh, SNHG1 /// SNORD22 /// SNORD25 /// SNORD26 /// SNORD27 /// SNORD28 /// SNORD29 /// SNORD31 / Fold change (Aza/veh), C12orf56 (ProbeSet 11735607_a_at) / Fold change (ACY-1035/veh), C12orf56 (ProbeSet 11735607_a_at) / Fold change (Aza/veh), FGFR1OP (ProbeSet 11751329_s_at) / Fold change (ACY-1035/veh), FGFR1OP (ProbeSet 11751329_s_at) / Fold change (Aza/veh), VPS36 (ProbeSet 11739960_a_at) / Fold change (ACY-1035/veh), VPS36 (ProbeSet 11739960_a_at) / RFU SYPL1 (11715823_x_at) / Fold change /veh SYPL1 (11715823_x_at) / RFU IGFBP7 (11715501_s_at) / Fold change /veh IGFBP7 (11715501_s_at) / RFU REEP3 (11722064_at) / Fold change /veh REEP3 (11722064_at) / RFU IGLL1 (11728026_x_at) / Fold change /veh IGLL1 (11728026_x_at): dose or concentration left out as unconfirmed
Conditions: ProbeSet 11727641_at; LIST B

In the case of `Nc1ncn([C@@H]2O[C@H](CO)[C@@H](O)[C@H]2O)c(=O)n1` [azacitidine], the “Fold change vs veh, NOM1” value is reported as 1.06.
